Literature values as cited in US11103547B2, “Methods for disrupting biofilms” (priority 2016, dated 2021).

Tested on: MRSA biofilm
Details: shown previously; positive control

CCCCCCCCCC(=O)N[C@@H](Cc1c[nH]c2ccccc12)C(=O)N[C@H](CC(N)=O)C(=O)N[C@@H](CC(=O)O)C(=O)N[C@@H]1C(=O)NCC(=O)N[C@@H](CCCN)C(=O)N[C@@H](CC(=O)O)C(=O)N[C@H](C)C(=O)N[C@@H](CC(=O)O)C(=O)NCC(=O)N[C@H](CO)C(=O)N[C@@H]([C@H](C)CC(=O)O)C(=O)N[C@@H](CC(=O)c2ccccc2N)C(=O)O[C@@H]1C [Daptomycin]
disruption of biomass biofilm of MRSA: disrupt biomass biofilm of MRSA
